From patent US7652013B2, “Inhibitors of stearoyl-CoA desaturase” (Hoffman-La Roche Inc., priority 2007, dated 2010)

How the values were obtained:
[1] = molecular target: T1, SCD1 (Mus musculus, UniProt P13516); test: SCD assay: release of tritiated water from desaturation of 9,10-3H-stearoyl CoA, mouse liver microsomes; format: biochemical
T1 construct: Mouse liver microsomes, prepared from mice fed a high carbohydrate diet, were a source of the SCD; from tissue; host or cells: mouse liver microsomes (mice fed a high carbohydrate diet)
T1 sequence (P13516 1-355): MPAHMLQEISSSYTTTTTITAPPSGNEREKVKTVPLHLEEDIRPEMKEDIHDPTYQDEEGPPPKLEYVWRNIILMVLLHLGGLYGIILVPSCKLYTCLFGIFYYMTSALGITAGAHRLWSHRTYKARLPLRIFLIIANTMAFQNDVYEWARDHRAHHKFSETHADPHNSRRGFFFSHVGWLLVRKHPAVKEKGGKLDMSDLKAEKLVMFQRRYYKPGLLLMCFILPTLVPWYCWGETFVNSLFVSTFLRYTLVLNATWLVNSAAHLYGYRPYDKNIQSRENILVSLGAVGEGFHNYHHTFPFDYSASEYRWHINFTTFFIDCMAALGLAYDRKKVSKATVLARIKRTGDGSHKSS
Source text: Stearoyl CoA desaturase activity was monitored by a modification of the acyl carrier protein assay described by B. R. Talamo and K. Bloch in Anal. Biochem. 1968, 29, 300-304. The SCD assay monitors the release of tritiated water from the desaturation of 9,10-^3H-stearoyl CoA.
Mouse liver microsomes, prepared from mice fed a high carbohydrate diet, were a source of the SCD and cyt b5 and cyt b5 reductase, necessary accessory proteins for the coupled reaction. Reaction mixtures for compound titrations contained 50 mM Tris HCl pH 7.5, 100 mM NaCl, 0.165 mg/ml BSA, 2.4% DMSO, 1 mM NADH, 0.03% T-20, and 300 nM (9,10) ^3H-stearoyl CoA (Perkin-Elmer). Reactions were initiated upon the addition of 4 ug/ml SCD microsomes. Incubations were terminated after 25 minutes at room temperature with cold 6% TCA. After standing 10 minutes at 4 deg C., samples were centrifuged 15 minutes at 4000 rpm to pellet precipitated protein. Supernatants were added to microtiter plates containing suspensions of activated charcoal (Darco G-60, Fisher Scientific) and mixed by inversion. Plates were then centrifuged to separate ^3H—H2O product from charcoal-bound reactants. Supernatants were quantitated in a Perkin Elmer Topcount 384 after solubilization in ScintiSafe Plus 50% (Fisher Scientific).
Inhibition (%) of SCD activity by compounds was calculated according to the following formula: % Inhibition=100*[1−(CPMsample−CPMblank)/(CPMtotal−CPMblank)]

| IC50 [1] [nM] | melting point | SMILES |
| --- | --- | --- |
| ≤ 1000 | – | Cc1ccccc1CN1CCN(c2cc(=O)[nH]cn2)CC1 [Example 2, 6-[4-(2-Methyl-benzyl)-piperazin-1-yl]-3H-pyrimidin-4-one] |
| ≤ 1000 | – | Cc1c(Br)cccc1CN1CCN(c2cc(=O)[nH]cn2)CC1 [Example 35, 6-[4-(3-Bromo-2-methyl-benzyl)-piperazin-1-yl]-3H -pyrimidin-4-one] |
| ≥ 1100 | – | O=c1cc(N2CCN(Cc3cc(Br)ccc3F)CC2)nc[nH]1 [Example 19, 6-[4-(5-Bromo-2-fluoro-benzyl)-piperazin-1-yl]-3H -pyrimidin-4-one] |
| ≤ 1000 | – | O=c1cc(N2CCN(Cc3cccc(Cl)c3Cl)CC2)nc[nH]1 [Example 17, 6-[4-(2,3-Dichloro-benzyl)-piperazin-1-yl]-3H-pyrimidin-4-one] |

More lines, now with the values behind:

| SMILES | IC50 [1] [nM] | melting point |
| --- | --- | --- |
| O=c1cc(N2CCN(Cc3ccc(Br)cc3F)CC2)nc[nH]1 [Example 34, 6-[4-(4-Bromo-2-fluoro-benzyl)-piperazin-1-yl]-3H -pyrimidin-4-one] | ≥ 1100 | 275 to 276 °C |
| O=c1cc(N2CCN(Cc3ccc(F)cc3Cl)CC2)nc[nH]1 [Example 32, 6-[4-(2-Chloro-4-fluoro-benzyl)-piperazin-1-yl]-3H -pyrimidin-4-one] | ≥ 1100 | 255 to 256 °C (dec.) |
| O=c1cc(N2CCN(Cc3cccc(F)c3)CC2)nc[nH]1 [Example 33, 6-[4-(3-Fluoro-benzyl)-piperazin-1-yl]-3H-pyrimidin-4-one] | ≥ 1100 | 273 to 275 °C (dec.) |
| Cc1cc(Cl)cc(CN2CCN(c3cc(=O)[nH]cn3)CC2)c1O [Example 47, 6-[4-(5-Chloro-2-hydroxy-3-methyl-benzyl)-piperazin-1-yl]-3H-pyrimidin-4-one] | ≤ 1000 | – |
| COc1cc(Br)cc(CN2CCN(c3cc(=O)[nH]cn3)CC2)c1O [Example 7, 6-[4-(5-Bromo-2-hydroxy-3-methoxy-benzyl)-piperazin-1-yl]-3H -pyrimidin-4-one] | ≤ 1000 | – |
| O=c1cc(N2CCN(Cc3ccccc3O)CC2)nc[nH]1 [Example 30, 6-[4-(2-Hydroxy-benzyl)-piperazin-1-yl]-3H-pyrimidin-4-one] | ≥ 1100 | – |
| CC(C)(C)c1cccc(CN2CCN(c3cc(=O)[nH]cn3)CC2)c1O [Example 41, 6-[4-(3-tert-Butyl-2-hydroxy-benzyl)-piperazin-1-yl]-3H-pyrimidin-4-one] | ≤ 1000 | – |
| N#Cc1cc(CN2CCN(c3cc(=O)[nH]cn3)CC2)ccc1F [Example 11, 2-Fluoro-5-[4-(6-oxo-1,6-dihydro-pyrimidin-4-yl) -piperazin-1-ylmethyl]-benzo-nitrile] | ≤ 1000 | – |
| O=c1cc(N2CCN(Cc3cccc(Br)c3O)CC2)nc[nH]1 [Example 48, 6-[4-(3-Bromo-2-hydroxy-benzyl)-piperazin-1-yl]-3H -pyrimidin-4-one] | ≤ 1000 | – |
| COc1cc([N+](=O)[O-])cc(CN2CCN(c3cc(=O)[nH]cn3)CC2)c1O [Example 55, 6-[4-(2-Hydroxy-3-methoxy-5-nitro-benzyl)-piperazin-1-yl]-3H-pyrimidin-4-one] | ≥ 1100 | – |
